Data: patent publication US11547130B2, “Nanocomposite bacteriostatic material and a preparation method and an application thereof” (Tianjin University of Science and Technology, priority 2019, dated 2023)

System: Bacillus subtilis
Test: Shake-flask antibacterial test, viable count by dilution spread plate method
Assay type: cell-based
Experimental: Bacillus subtilis was selected as a strain for the antibacterial test. The Bacillus subtilis was cultured for overnight in a shake flask first, and a bacteria solution having a concentration of 10^8 CFU/mL was selected as a seed solution for later use. Multiple 100 mL triangular flasks provided with 30 mL of LB liquid medium were taken, and sterilized for 20 min at 121° C. The triangular flasks were divided into four groups, three triangular flasks in each group for parallel test.
The Bacillus subtilis solution having the concentration of 10^8 CFU/mL was inoculated to the above four groups as per an inoculum size of 2% (v/v), and respectively cultured for 4 h, 8 h, 12 h, 24 h and 28 h on a shaker, where a culture condition was 37° C. and 180 r/min. Then, a sample at every timing was taken, and a viable count in each shake flask was measured via a dilution spread plate method to embody the antibacterial activity.
The Bacillus subtilis solution having the concentration of 10^8 CFU/mL was inoculated to the above four groups as per an inoculum size of 2% (v/v), and respectively cultured for 4 h, 8 h, 12 h, 24 h and 28 h on a shaker, where a culture condition was 37° C. and 180 r/min, for sampling. Then, a sample was taken, and a viable count in each shake flask at every moment was measured via a dilution spread plate method to embody the antibacterial activity.

nisin
concentration of bacteria in the shake flask (Experimental example 1 (Embodiment 1 materials, nisin 1 g/L), 1 mL agent in 30 mL LB, 8-12 h in culture): ≥ 10^7 CFU/mL
concentration of viable bacteria in the shake flask (Experimental example 1 (Embodiment 1 materials, nisin 1 g/L), 1 mL agent in 30 mL LB, 4 h in culture, 37° C.): ≥ 10^4 CFU/mL
antibacterial activity in words (Experimental example 1 (nisin 1 g/L), nisin at 8 h, empty carrier at 24-28 h, nano-composite at 28 h): lost bacteriostatic action at 8 h
antibacterial activity in words (Experimental example 2 (Embodiment 2 materials, nisin 10 g/L), at 16 h): greatly reduced
